{
  "source": "patent US11376203B2",
  "about": "“Hair treatment composition” (Conopco, Inc., priority 2017, dated 2022)",
  "key": {"[1]": {"assay": "Hair switch shape and frizz control (volume) after straightening and exposure to high humidity", "conditions": "After 1 hour at high humidity (30 C./80% RH); switches soaked 30 minutes in 1% aqueous solution, dried, straightened with 5 passes of irons; volume vs water control", "experimental": "(§1) Dark brown European wavy hair switches of length 25 cm and weight 2 gms, were treated as follows:\nControl: After initial washing, soaked for 30 minutes in water\nComparative Example A: After initial washing, soaked for 30 minutes in aqueous solution of 1% glycine\nExample 1: soaked for 30 minutes in aqueous solution of 1% N-formyl glycine\n(§2) At the end of the soaking period, the switches were left to dry at 20° C. and 50% RH. When dried, the switches were straightened with 5 passes of FHI irons (FHI Brands, 29003 Avenue Sherman Valencia, Calif. 91355 USA). The switches were then placed in a humidity chamber ˜30 C/80% RH for 1 hour and images were captured and analyzed."}, "[2]": {"assay": "Hair switch volume reduction benefit after subsequent washing", "conditions": "switches from Example 1 subsequently washed, images captured; compared to control", "experimental": "as §1, §2\nThe switches from the above example were subsequently washed and the images were captured. […] The corresponding benefits for glycine was only −10%."}},
  "data": [
    {"molecule": "NCC(=O)O", "note": "[Comparative Example A, glycine]", "values": [
      {"measurement": "% shape and frizz control benefit against control", "setting": "[1]", "value": "−6", "unit": "%"},
      {"measurement": "benefit over control (volume reduction) after washing", "setting": "[2]", "value": "−10", "unit": "%"}
    ]},
    {"molecule": "O=CNCC(=O)O", "note": "[Example 1, N-formyl glycine]", "values": [
      {"measurement": "% shape and frizz control benefit against control", "setting": "[1]", "value": 30, "unit": "%"},
      {"measurement": "benefit over control (volume reduction) after washing", "setting": "[2]", "value": 32, "unit": "%"}
    ]}
  ]
}
